Assay results reported in US11053204B2, “Pyrimidinyloxy benzene derivatives as herbicides” (FMC Corporation, priority 2015, dated 2021).

Key:
Format in all cases: in vivo
[1] = test system: oilseed rape (Brassica napus); assay: Test C postemergence, plant response rating; details: Brassica napus, post-emergence
From the text: (§1) Seeds of plant species selected from blackgrass (Alopecurus myosuroides), ryegrass, Italian (Italian ryegrass, Lolium multiflorum), wheat (winter wheat, Triticum aestivum), galium (catchweed bedstraw, Galium aparine), corn (Zea mays), crabgrass, large (large crabgrass, Digitaria sanguinalis), foxtail, giant (giant foxtail, Setaria faberii), johnsongrass (Sorghum halepense), lambsquarters (Chenopodium album), morningglory (Ipomoea coccinea), nutsedge, yellow (yellow nutsedge, Cyperus esculentus), pigweed (Amaranthus retroflexus), ragweed (common ragweed, Ambrosia elatior), soybean (Glycine max), barnyardgrass (Echinochloa crus-galli), oilseed rape (Brassica napus), pigweed, palmer (palmer pigweed, Amaranthus palmeri), waterhemp (common waterhemp, Amaranthus rudis), velvetleaf (Abutilon theophrasti), kochia (Kochia scoparia), surinam grass (Brachiaria decumbens), nightshade (eastern black nightshade, Solanum ptycanthum), wild poinsettia (Euphorbia heterophylla), windgrass (Apera spica-venti), and oat, wild (wild oat Avena fatua), were planted into a blend of loam soil and sand or a silt loam soil and treated preemergence with test chemicals formulated in a non-phytotoxic solvent mixture which included a surfactant.
(§2) At the same time, plants selected from these crop and weed species and also chickweed (common chickweed, Stellaria media), buckwheat, wild (wild buckwheat, Polygonum convolvulus), wild mustard (Sinapis arvensis), field poppy (Papaver rhoeas), field violet (Viola arvensis), geranium, cutleaf (cutleaf geranium, Geranium dissectum), Canada thistle (Cirsium arvense), and speedwell (bird's-eye speedwell, Veronica persica), were planted in pots containing Sunshine Redi-Earth® planting medium comprising spaghnum peat moss, vermiculite, starter nutrients and dolomitic limestone and treated with postemergence applications of test chemicals formulated in the same manner. Plants ranged in height from 2 to 18 cm (1- to 4-leaf stage) for postemergence treatments. Treated plants and controls were maintained in a greenhouse for 13 to 15 d, after which time all species were compared to controls and visually evaluated. Plant response ratings, summarized in Table C, are based on a scale of 0 to 100 where 0 is no effect and 100 is complete control. A dash (-) response means no test result.

[2] = test system: wheat (winter wheat, Triticum aestivum); assay: Test C postemergence, plant response rating; details: Triticum aestivum, post-emergence
From the text: as §1, §2

[3] = test system: galium (catchweed bedstraw, Galium aparine); assay: Test C postemergence, plant response rating; details: Galium, post-emergence
From the text: as §1, §2

[4] = test system: foxtail, giant (giant foxtail, Setaria faberii); assay: Test C postemergence, plant response rating; details: Setaria faberi, post-emergence
From the text: as §1, §2

[5] = test system: ryegrass, Italian (Italian ryegrass, Lolium multiflorum); assay: Test C postemergence, plant response rating; details: Lolium multiflorum, post-emergence
From the text: as §1, §2

soybean (Glycine max) = assay: Test C postemergence, plant response rating; details: Glycine max, post-emergence
From the text: as §1, §2

[6] = test system: blackgrass (Alopecurus myosuroides); assay: Test C postemergence, plant response rating; details: Alopecurus myosuroides, post-emergence
From the text: as §1, §2

[7] = test system: waterhemp (common waterhemp, Amaranthus rudis); assay: Test C postemergence, plant response rating; details: for Plant response rating, Waterhemp: scale 0 to 100; for Waterhemp plant response rating: scale 0 to 100 (0 no effect, 100 complete control)
From the text: as §1, §2

[8] = test system: chickweed (common chickweed, Stellaria media); assay: Test C postemergence, plant response rating; details: Stellaria media, post-emergence
From the text: as §1, §2

[9] = test system: galium (catchweed bedstraw, Galium aparine); assay: Test A postemergence, visual injury rating; details: Galium, post-emergence, 240 h, 0 is no effect, 100 is complete control, read-out: Galium plant response rating (0 to 100 scale)
How it was run: (§3)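 Visual injury scored 0–100 (100 = complete control) against untreated controls about 10 days after treatment in a greenhouse. Test chemicals, formulated with surfactant in non-phytotoxic solvent, were sprayed on soil preemergence or on 2-10 cm, one- to two-leaf plants postemergence.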

[10] = test system: barnyardgrass (Echinochloa crus-galli); assay: Test A postemergence, visual injury rating; details: Echinochloa crus-galli, post-emergence, 240 h, 0 is no effect, 100 is complete control, read-out: Barnyardgrass plant response rating (0 to 100 scale)
How it was run: as §3

[11] = test system: giant foxtail (Setaria faberii); assay: Test A postemergence, visual injury rating; details: Setaria faberi, post-emergence, 240 h, 0 is no effect, 100 is complete control, read-out: Foxtail, Giant plant response rating (0 to 100 scale)
How it was run: as §3

[12] = test system: Italian ryegrass (Lolium multiflorum); assay: Test A postemergence, visual injury rating; details: Lolium multiflorum, post-emergence, 240 h, 0 is no effect, 100 is complete control, read-out: Ryegrass, Italian plant response rating (0 to 100 scale)
How it was run: as §3

[13] = test system: ragweed (common ragweed, Ambrosia elatior); assay: Test A postemergence, visual injury rating; details: Ambrosia artemisiifolia, post-emergence, 240 h, 0 is no effect, 100 is complete control, read-out: Ragweed plant response rating (0 to 100 scale)
How it was run: as §3

[14] = test system: wheat (Triticum aestivum); assay: Test A postemergence, visual injury rating; details: Triticum aestivum, post-emergence, 240 h, 0 is no effect, 100 is complete control, read-out: Wheat plant response rating (0 to 100 scale)
How it was run: as §3

[15] = test system: pigweed (Amaranthus retroflexus); assay: Test A postemergence, visual injury rating; details: Amaranthus retroflexus, post-emergence, 240 h, 0 is no effect, 100 is complete control, read-out: Pigweed plant response rating (0 to 100 scale)
How it was run: as §3

[16] = test system: blackgrass (Alopecurus myosuroides); assay: Test A postemergence, visual injury rating; details: Alopecurus myosuroides, post-emergence, 240 h, 0 is no effect, 100 is complete control, read-out: Blackgrass plant response rating (0 to 100 scale)
How it was run: as §3

kochia (Kochia scoparia) = assay: Test A postemergence, visual injury rating; details: Bassia scoparia, post-emergence, 240 h, 0 is no effect, 100 is complete control, read-out: Kochia plant response rating (0 to 100 scale)
How it was run: as §3

corn (Zea mays) = assay: Test A postemergence, visual injury rating; details: Zea mays, post-emergence, 240 h, 0 is no effect, 100 is complete control, read-out: Corn plant response rating (0 to 100 scale)
How it was run: as §3

[17] = 62 g ai/ha, scale 0 to 100 (0 no effect, 100 complete control)
[18] = 125 g ai/ha, scale 0 to 100 (0 no effect, 100 complete control)

## O=C(OCCCC(F)(F)F)c1c(Br)cccc1Oc1ncc(Cl)cn1 [Compound 20, 4,4,4-trifluorobutyl 2-bromo-6-[(5-chloro-2-pyrimidinyl)oxy]benzoate]
[1]; 16 g ai/ha, scale 0 to 100
  plant injury at 16 g/ha: 50%
[1]; 31 g ai/ha, scale 0 to 100
  plant injury at 31 g/ha: 50%
[1]; [17]
  plant injury at 62 g/ha: 50%
[1]; [18]
  plant injury at 125 g/ha: 60%
[2]; 16 g ai/ha, scale 0 to 100
  plant injury at 16 g/ha: 0%
[2]; 31 g ai/ha, scale 0 to 100
  plant injury at 31 g/ha: 0%
[2]; 62 g ai/ha, scale 0 to 100 (0 no effect, 100 complete control), read-out: Wheat plant response rating
  plant injury at 62 g/ha: 5%
[2]; [18]
  plant injury at 125 g/ha: 5%
[3]; 16 g ai/ha, scale 0 to 100
  pest or weed control at 16 g/ha: 70%
[3]; 31 g ai/ha, scale 0 to 100
  pest or weed control at 31 g/ha: 60%
[3]; [17]
  pest or weed control at 62 g/ha: 80%
[3]; [18]
  pest or weed control at 125 g/ha: 98%
[4]; 16 g ai/ha, scale 0 to 100
  pest or weed control at 16 g/ha: 10%
[4]; 31 g ai/ha, scale 0 to 100
  pest or weed control at 31 g/ha: 10%
[4]; [17]
  pest or weed control at 62 g/ha: 10%
[4]; [18]
  pest or weed control at 125 g/ha: 25%
[5]; 16 g ai/ha, scale 0 to 100
  pest or weed control at 16 g/ha: 0%
[5]; 31 g ai/ha, scale 0 to 100
  pest or weed control at 31 g/ha: 5%
[5]; [17]
  pest or weed control at 62 g/ha: 10%
[5]; [18]
  pest or weed control at 125 g/ha: 5%
Soybean (Glycine max); 16 g ai/ha, scale 0 to 100
  plant injury at 16 g/ha: 25%
Soybean (Glycine max); 31 g ai/ha, scale 0 to 100
  plant injury at 31 g/ha: 65%
Soybean (Glycine max); [17]
  plant injury at 62 g/ha: 55%
Soybean (Glycine max); [18]
  plant injury at 125 g/ha: 60%
[6]; 16 g ai/ha, scale 0 to 100
  pest or weed control at 16 g/ha: 5%
[6]; 31 g ai/ha, scale 0 to 100
  pest or weed control at 31 g/ha: 5%
[6]; [17]
  pest or weed control at 62 g/ha: 5%
[6]; [18]
  pest or weed control at 125 g/ha: 10%
[7]; 16 g ai/ha
  Plant response rating, Waterhemp: 75
[7]; 31 g ai/ha
  Plant response rating, Waterhemp: 95
[7]; 62 g ai/ha
  Waterhemp plant response rating: 90
[7]; 125 g ai/ha
  Waterhemp plant response rating: 98
[8]; 16 g ai/ha, scale 0 to 100
  pest or weed control at 16 g/ha: 60%
[8]; 31 g ai/ha, scale 0 to 100
  pest or weed control at 31 g/ha: 60%
[8]; [17]
  pest or weed control at 62 g/ha: 65%
[8]; [18]
  pest or weed control at 125 g/ha: 75%
[9]; 125 g ai/ha
  pest or weed control at 125 g/ha: 10%
[9]; 500 g ai/ha
  pest or weed control at 500 g/ha: 90%
[10]; 125 g ai/ha
  pest or weed control at 125 g/ha: 30%
[10]; 500 g ai/ha
  pest or weed control at 500 g/ha: 100%
[11]; 125 g ai/ha
  pest or weed control at 125 g/ha: 50%
[11]; 500 g ai/ha
  pest or weed control at 500 g/ha: 100%
[12]; 125 g ai/ha
  pest or weed control at 125 g/ha: 0%
[12]; 500 g ai/ha
  pest or weed control at 500 g/ha: 40%
[13]; 125 g ai/ha
  pest or weed control at 125 g/ha: 0%
[13]; 500 g ai/ha
  pest or weed control at 500 g/ha: 40%
[14]; 125 g ai/ha
  plant injury at 125 g/ha: 0%
[14]; 500 g ai/ha
  plant injury at 500 g/ha: 20%
[15]; 125 g ai/ha
  pest or weed control at 125 g/ha: 100%
[15]; 500 g ai/ha
  pest or weed control at 500 g/ha: 100%
[16]; 125 g ai/ha
  pest or weed control at 125 g/ha: 30%
[16]; 500 g ai/ha
  pest or weed control at 500 g/ha: 50%
Kochia (Kochia scoparia); 125 g ai/ha
  pest or weed control at 125 g/ha: 90%
Kochia (Kochia scoparia); 500 g ai/ha
  pest or weed control at 500 g/ha: 100%
Corn (Zea mays); 125 g ai/ha
  plant injury at 125 g/ha: 30%
Corn (Zea mays); 500 g ai/ha
  plant injury at 500 g/ha: 40%
